Measurements reported in patent US11844794B2, “Pharmaceutical compositions” (ADEPTIO PHARMACEUTICALS LIMITED, priority 2017, dated 2023).
“Also recorded” adds a separate entry of the source. Read-outs that look alike come from different tables or passages of the source.

Legend:
[1] = equilibrium aqueous solubility by HPLC; format: physicochemical
Method: The aqueous solubilities of salts were measured by an equilibrium method in which an amount of the salt was weighed into a 2 ml vial equipped with a magnetic stirrer bar and water added. In cases where complete dissolution was observed, more material was added until the sample was exhausted. The slurry was then stirred for seven days before isolating the solids by centrifuge-filtration. The solids were analysed by XRPD and the filtrates were analysed by HPLC to determine the amount of (+)-alpha-dihydrotetrabenazine salt in solution. The solubilities were calculated against a calibration curve established for a (+)-alpha-dihydrotetrabenazine sample of known concentration.

[2] = solid form stability in slurry / polymorphism by XRPD; format: physicochemical; details: for crystalline form after stirring in slurry (XRPD): one week
[3] = thermal gravimetric analysis (TGA) / thermal stability; details: for TGA weight loss: 30-300° C. at 10° C./minute
Method: Differential scanning calorimetry (DSC) was carried out on the sample “as is” using a Mettler DSC1 instrument. The sample was weighed I an aluminium pan, covered with a pierced lid, and then crimped and analysed from 30-300° C. at 10° C./minute.
Thermal gravimetric analysis was performed on the sample “as is” using a Mettler 851^e TGA instrument. The sample was weighed in an alumina crucible and analysed from 30-300° C. at 10° C./minute.

[4] = moisture-sorption analysis; format: physicochemical; details: for moisture uptake: 25° C.
Method: Moisture-sorption analysis was carried out using a Hiden IGA Sorp moisture-sorption analyser. […] The sample was then subjected to an isothermal (at 25° C.) adsorption scan from 40 to 90% relative humidity in steps of 10%. The sample was allowed to equilibrate to an asymptotic weight at each point for a maximum of four hours. […] An adsorption scan was then performed from 0 to 40% relative humidity inn steps of 10%. The sample was dried for two hours at 60° C. and 0% relative humidity, and the resulting solid was analysed by XRPD.

[5] = target: Chromaffin Granule Monoamine Transporter (Bos taurus, UniProt Q27963); details: racemic α versus racemic β, in vitro; cited from earlier work
Chromaffin Granule Monoamine Transporter, sequence (Q27963 whole entry): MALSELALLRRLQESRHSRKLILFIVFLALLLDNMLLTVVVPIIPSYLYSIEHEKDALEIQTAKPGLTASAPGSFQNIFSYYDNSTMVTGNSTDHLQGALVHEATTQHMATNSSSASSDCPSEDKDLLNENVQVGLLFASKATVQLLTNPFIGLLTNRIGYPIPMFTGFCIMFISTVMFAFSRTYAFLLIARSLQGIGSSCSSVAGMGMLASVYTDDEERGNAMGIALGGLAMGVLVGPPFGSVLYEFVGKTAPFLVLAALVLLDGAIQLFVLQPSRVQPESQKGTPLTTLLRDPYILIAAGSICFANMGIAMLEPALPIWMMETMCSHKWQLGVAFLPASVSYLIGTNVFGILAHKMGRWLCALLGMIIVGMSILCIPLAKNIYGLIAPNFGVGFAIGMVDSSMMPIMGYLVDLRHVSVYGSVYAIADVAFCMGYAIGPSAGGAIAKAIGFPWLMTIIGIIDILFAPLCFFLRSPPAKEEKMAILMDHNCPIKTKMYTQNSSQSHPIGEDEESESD

[6] = tested on: amphetamine-induced rats; test: amphetamine-induced locomotor activity, open field test; format: in vivo, rat; details: male CD rats
Method: (§1) All animal experiments were carried out according to the National Institute of Health (NIH) guidelines for the care and use of laboratory animals, and approved by the National Animal Experiment Board, Finland. Male CD (Charles River Laboratories, Germany) at weight range of 200-250 g (165-200 g upon arrival) were used for the experiments. Animals were housed at a standard temperature (22±1° C.) and in a light-controlled environment (lights on from 7 am to 8 pm) with ad libitum access to food and water.
(§2) Locomotor activity of the rats was tested in open field arena. The open field test was performed during the rat light cycle and under a normal lighting evenly distributed to the test chambers. The paths of the rats were recorded by activity monitor (Med. Associates Inc.).
(§3) Dosing the vehicle, vehicle-amphetamine, (+)-α-DHTBZ or risperidone was done prior to LMA test. The rats were placed in the centre of the arena, and the path was recorded for 60 minutes.
Animals were grouped as follows: • Group 1: 10 rats treated with Vehicle (t=0 min) and Vehicle (t=30 min) • Group 2: 10 rats treated with Vehicle (t=0 min) and Amphetamine (t=30 min) • Group 3: 10 rats treated with (+)-α-DHTBZ 0.5 mg/kg (t=0 min) and Amphetamine (t=30 min) • Group 4: 10 rats treated with (+)-α-DHTBZ 1 mg/kg (t=0 min) and Amphetamine (t=30 min) • Group 5: 10 rats treated with (+)-α-DHTBZ 1.5 mg/kg (t=0 min) and Amphetamine (t=30 min) • Group 6: 10 rats treated with (+)-α-DHTBZ 2 mg/kg (t=0 min) and Amphetamine (t=30 min) • Group 7: 10 rats treated with risperidone 1 mg/kg (t=0 min) and Amphetamine (t=30 min)
(§4) Rats dosed with either vehicle, (+)-α-DHTBZ 0.5 mg/kg, (+)-α-DHTBZ 1 mg/kg, (+)-α-DHTBZ 1.5 mg/kg, (+)-α-DHTBZ 2 mg/kg or Risperidone 1 mg/kg were subjected to LMA testing first for 30 min and then for 60 minutes after vehicle or amphetamine challenge. Resulting locomotor activity was evaluated in 3 min bins and as a total over the testing period.
as §4, with “stereotypic” for “locomotor”, “period. […]” for “period.”

[7] = tested on: non-amphetamine induced rats; test: locomotor activity in rats without amphetamine induction, open field test; format: in vivo, rat; details: Study 3, non-induced rats, 1 mg/kg
Method: as §1, §2, §3
Animals were grouped as follows: • Group 1: 10 rats treated with Vehicle • Group 2: 10 rats treated with (+)-α-DHTBZ 2.5 mg/kg • Group 3: 10 rats treated with (+)-α-DHTBZ 5 mg/kg • Group 4: 10 rats treated with risperidone 1 mg/kg

[8] = tested on: patients suffering from tardive dyskinesia; details: cited from earlier work
[9] = tested on: Tardive Dyskinesia sufferers; details: Valbenazine 80 mg/day; cited from earlier work

Compound: COc1cc2c(cc1OC)[C@H]1C[C@@H](O)[C@H](CC(C)C)CN1CC2.Cl [HCl salt form A, (+)-α-dihydrotetrabenazine hydrochloride]
- equilibrium solubility in water [1]: 203 mg/mL
- solubility thermodynamic [1]: 203 mg/mL
- polymorphism [2]: undesirable polymorphism
- crystalline form after stirring in slurry (XRPD) ([2]; aqueous slurry): conversion to a different (by XRPD) crystalline form
- TGA weight loss [3]: No weight loss

Compound: COc1cc2c(cc1OC)[C@H]1C[C@@H](O)[C@H](CC(C)C)CN1CC2.O=S(=O)(O)c1ccccc1 [benzenesulphonate salt]
- moisture uptake ([4]; 60% relative humidity): 0.2 wt %
- moisture uptake ([4]; 90% relative humidity): 1.7 wt %
- hygroscopicity ([4]; gravimetric moisture-sorption): slightly hygroscopic
- equilibrium solubility in water ([1]; water, measured by HPLC): 2.20 mg/mL
- polymorphism [2]: no apparent polymorphism
- crystalline form after stirring in slurry (XRPD) ([2]; water, ethanol and ethyl acetate slurry): remained unchanged
- TGA weight loss [3]: No weight loss
- thermal stability ([3]; from DSC and TGA): good thermal stability

Compound: α-dihydrotetrabenazine
- higher affinity than the β-isomer [5]: 3- to 4 fold

Compound: Cc1nc2n(c(=O)c1CCN1CCC(c3noc4cc(F)ccc34)CC1)CCCC2 [risperidone, reference compound]
- total distance travelled compared to vehicle-amphetamine group ([6]; Study 1, 1 mg/kg): lower locomotor activity
- total stereotypic behaviour compared to vehicle-amphetamine group ([6]; Study 1, 1 mg/kg): significantly different; also recorded: reduced stereotypic behaviour
- total distance travelled compared to vehicle-amphetamine group ([6]; Study 2, 1 mg/kg): lower locomotor activity
- total stereotypic behaviour compared to vehicle-amphetamine group ([6]; Study 2, 1 mg/kg): significantly different; also recorded: reduced stereotypic behaviour
- total movement versus vehicle [7]: reduced total movement
- total stereotypic behaviour versus vehicle [7]: reduced total stereotypic behaviour

Compound: COc1cc2c(cc1OC)[C@H]1C[C@@H](OC(=O)[C@@H](N)C(C)C)[C@H](CC(C)C)CN1CC2 [Valbenazine]
- improvement scored with AIMS ([8]; Valbenazine 50 mg/day): did not show any significant signs of improvement
- reduction of symptoms (AIMS) ([8]; Valbenazine 100 mg/day): some reduction of symptoms
- Abnormal Involuntary Movement Score [9]: significant improvement
